Source: patent publication US12661410B2, “Compounds for targeted degradation of RET” (C4 Therapeutics, Inc., priority 2020, dated 2026)
Changes are numbered by the printed parent chain. Like-named read-outs stand apart in the source and are kept apart here.

Legend:
RET (658-1114) = target: T1, RET (658-1114) (Homo sapiens, UniProt P07949); assay: HiBiT-Degradation, RET wild-type degradation assay (Nano-Glo HiBiT Lytic), 293T.144 cells; assay type: cell-based; conditions: HiBiT-Degradation; for DC50 / Emax: 6.0 hours; for DC50: read-out: 293T.144 RET (658-1114) 6.0 hours (DC50); for Emax: read-out: 293T.144 RET (658-1114) 6.0 hours (Emax)
T1 construct: 658-1114; expressed in transfected cells; host or cells: 293T.144 (293T cells, generated in-house)
T1 sequence (P07949 658-1114): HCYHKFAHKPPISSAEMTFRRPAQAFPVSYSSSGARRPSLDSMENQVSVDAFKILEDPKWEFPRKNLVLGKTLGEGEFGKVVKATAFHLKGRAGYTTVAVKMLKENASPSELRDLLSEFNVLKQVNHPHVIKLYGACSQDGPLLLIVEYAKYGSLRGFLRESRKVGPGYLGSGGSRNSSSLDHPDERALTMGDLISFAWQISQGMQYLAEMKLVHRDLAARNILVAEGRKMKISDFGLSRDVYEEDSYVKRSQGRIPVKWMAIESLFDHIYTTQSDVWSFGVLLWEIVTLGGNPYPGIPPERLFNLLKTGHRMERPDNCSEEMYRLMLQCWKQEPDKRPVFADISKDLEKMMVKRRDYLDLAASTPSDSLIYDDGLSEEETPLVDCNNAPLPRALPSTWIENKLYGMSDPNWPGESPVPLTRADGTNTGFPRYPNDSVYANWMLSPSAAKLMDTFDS
In short: (§1)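 6 h treatment, 293T.144 (WT) / 293T.165 (G810R) cells ectopically expressing HiBiT-fused RET KD; 11-pt half-log dilution, top 10 μM, n=2. Nano-Glo HiBiT lytic detection, luminescence. Output: DC50, Emax (% protein remaining).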

RET(KD: 658-1114 G810R) = target: T2, RET(KD: 658-1114 G810R) (Homo sapiens, UniProt P07949, G810R); assay: HiBiT-Degradation, RET G810R degradation assay (Nano-Glo HiBiT Lytic), 293T.165 cells; assay type: cell-based; conditions: for Emax / DC50: 6.0 hours; for Emax: % remaining protein, read-out: 293T.165 RET(KD: 658-1114 G810R) 6.0 hours (Emax); for DC50: read-out: 293T.165 RET(KD: 658-1114 G810R) 6.0 hours (DC50)
T2 construct: 658-1114; expressed in transfected cells; host or cells: 293T.165 (293T cells, generated in-house)
T2 sequence (P07949 658-1114 G810R): T1 sequence (P07949 658-1114) with G153R
In short: as §1

[1] = half-maximal degradation concentration

293T.144 RET (658-1114) 6.0 hours (IP) [nM] (RET (658-1114))	DC50 (RET (658-1114)) [nM]	Emax (RET (658-1114)) [%]	Emax (RET(KD: 658-1114 G810R)) [%]	DC50 (RET(KD: 658-1114 G810R); [1]) [nM]	293T.165 RET(KD: 658-1114 G810R) 6.0 hours (Emax) (RET(KD: 658-1114 G810R); HiBiT-Degradation)	293T.165 RET(KD: 658-1114 G810R) 6.0 hours (IP) [nM] (RET(KD: 658-1114 G810R); HiBiT-Degradation)	DC50 (RET(KD: 658-1114 G810R); HiBiT-Degradation) [nM]	SMILES
++++ (< 50 nM = ++++)	< 50	< 30	< 30	< 50	++++ (< 30% = ++++)	++++ (< 50 nM = ++++)	< 50	N#Cc1cnn2cc(-c3cnn([C@H]4CC[C@H](CCN5CCC(c6ccc(NC7CCC(=O)NC7=O)cc6F)CC5)CC4)c3)nc(-c3ccc(N4CCN(C(=O)Cc5ccc(F)cn5)CC4)nc3)c12 (some centres unmarked) [Compound 60, 6-[1-[(1r,4r)-4-[2-[4-[4-[(2,6-dioxo-3-piperidyl)amino]-2-fluoro-phenyl]-1-piperidyl]ethyl]cyclohexyl]pyrazol-4-yl]-4-[6-[4-[2-(5-fluoro-2-pyridyl)acetyl]piperazin-1-yl]-3-pyridyl]pyrazolo[1,5-a]pyrazine-3-carbonitrile]
++++ (< 50 nM = ++++)	< 50	< 30	< 50	< 100	+++ (<50% = +++)	++++ (< 50 nM = ++++)	< 100	N#Cc1cnn2cc(-c3cnn(C4CCN(C(=O)CN5CCC(c6ccc(NC7CCC(=O)NC7=O)cc6F)CC5)CC4)c3)nc(-c3ccc(N4CCN(Cc5ccccn5)CC4)cc3)c12 (centres unmarked) [Compound 61, 6-[1-[1-[2-[4-[4-[(2,6-dioxo-3-piperidyl)amino]-2-fluoro-phenyl]-1-piperidyl]acetyl]-4-piperidyl]pyrazol-4-yl]-4-[4-[4-(2-pyridylmethyl)piperazin-1-yl]phenyl]pyrazolo[1,5-a]pyrazine-3-carbonitrile]
++++ (< 50 nM = ++++)	< 50	< 30	< 30	< 100	++++ (< 30% = ++++)	++++ (< 50 nM = ++++)	< 100	CCC1(C(=O)NC(C)C)CCN(c2ccc(-c3cc(-c4cnn(C5CCN(C(=O)CN6CCC(c7ccc8c(N9CCC(=O)NC9=O)nn(C)c8c7)CC6)CC5)c4)cn4ncc(C#N)c34)cn2)CC1 [Compound 63, 1-[5-[3-cyano-6-[1-[1-[2-[4-[3-(2,4-dioxohexahydropyrimidin-1-yl)-1-methyl-indazol-6-yl]-1-piperidyl]acetyl]-4-piperidyl]pyrazol-4-yl]pyrazolo[1,5-a]pyridin-4-yl]-2-pyridyl]-4-ethyl-N-isopropyl-piperidine-4-carboxamide]

SMILES	293T.144 RET (658-1114) 6.0 hours (IP) [nM] (RET (658-1114))	DC50 (RET (658-1114)) [nM]	Emax (RET (658-1114)) [%]	Emax (RET(KD: 658-1114 G810R)) [%]	DC50 (RET(KD: 658-1114 G810R); [1]) [nM]	293T.165 RET(KD: 658-1114 G810R) 6.0 hours (Emax) (RET(KD: 658-1114 G810R); HiBiT-Degradation)	293T.165 RET(KD: 658-1114 G810R) 6.0 hours (IP) [nM] (RET(KD: 658-1114 G810R); HiBiT-Degradation)	DC50 (RET(KD: 658-1114 G810R); HiBiT-Degradation) [nM]
N#Cc1cnn2cc(-c3cnn(C4CCN(C(=O)CN5CCC(c6ccc(NC7CCC(=O)NC7=O)cc6F)CC5)CC4)c3)cc(-c3ccc(N4CC5CCC(C4)N5Cc4ccccn4)nc3)c12 (centres unmarked) [Compound 62, 6-[1-[1-[2-[4-[4-[(2,6-dioxo-3-piperidyl)amino]-2-fluoro-phenyl]-1-piperidyl]acetyl]-4-piperidyl]pyrazol-4-yl]-4-[6-[8-(2-pyridylmethyl)-3,8-diazabicyclo[3.2.1]octan-3-yl]-3-pyridyl]pyrazolo[1,5-a]pyridine-3-carbonitrile]	++++ (< 50 nM = ++++)	< 50	< 30	< 50	< 100	+++ (<50% = +++)	++++ (< 50 nM = ++++)	< 100
